Reference: the supplement of paper PMC10307832

How the values were obtained:
Assay in all cases: relative viability (nuclei count vs DMSO), 5 days (fraction); higher = more cells survive
Selisistat + Luminespib = compound: C1CC(C2=C(C1)C3=C(N2)C=CC(=C3)Cl)C(=O)N [Selisistat] + CCNC(=O)c1noc(-c2cc(C(C)C)c(O)cc2O)c1-c1ccc(CN2CCOCC2)cc1 [Luminespib] (partner 0.01 µM)
Procedure, shortened: (§1)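 For relative viability, nuclei counts in treated wells were divided by those in vehicle wells. Lung cancer cell lines had been pin-tool dosed in 1536-well plates the day after seeding and cultured for 5 days, then fixed and stained in one step (final 0.05% Triton X-100, 1% formaldehyde, 1 ug/ml Hoechst) and imaged at 4×. Doses were one drug alone or a fixed anchor-drug dose plus five library-drug doses (not always all listed) in √10 steps, and values are duplicate-plate medians.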

Serdemetan + Pictilisib = compound: c1ccc2c(CCNc3ccc(Nc4ccncc4)cc3)c[nH]c2c1 [Serdemetan] + CS(=O)(=O)N1CCN(Cc2cc3nc(-c4cccc5[nH]ncc45)nc(N4CCOCC4)c3s2)CC1 [Pictilisib] (partner 1 µM)
Procedure, shortened: as §1

Selisistat + Trametinib = compound: C1CC(C2=C(C1)C3=C(N2)C=CC(=C3)Cl)C(=O)N [Selisistat] + CC(=O)Nc1cccc(-n2c(=O)n(C3CC3)c(=O)c3c(Nc4ccc(I)cc4F)n(C)c(=O)c(C)c32)c1 [Trametinib] (partner 0.02 µM)
Procedure, shortened: as §1

Serdemetan + Olaparib = compound: c1ccc2c(CCNc3ccc(Nc4ccncc4)cc3)c[nH]c2c1 [Serdemetan] + O=C(c1cc(Cc2n[nH]c(=O)c3ccccc23)ccc1F)N1CCN(C(=O)C2CC2)CC1 [Olaparib] (partner 8 µM)
Procedure, shortened: as §1

| Cell Line | relative viability (Selisistat + Luminespib; first compound 0.4 µM) | relative viability (Selisistat + Luminespib; first compound 1.265 µM) | relative viability (Selisistat + Luminespib; first compound 4 µM) | relative viability (Selisistat + Luminespib; first compound 12.65 µM) | relative viability (Selisistat + Luminespib; first compound 40 µM) | relative viability (Serdemetan + Pictilisib; first compound 0.04 µM) | relative viability (Serdemetan + Pictilisib; first compound 0.1265 µM) | relative viability (Serdemetan + Pictilisib; first compound 0.4 µM) | relative viability (Serdemetan + Pictilisib; first compound 1.265 µM) | relative viability (Serdemetan + Pictilisib; first compound 4 µM) | relative viability (Selisistat + Trametinib; first compound 0.4 µM) | relative viability (Selisistat + Trametinib; first compound 1.265 µM) | relative viability (Selisistat + Trametinib; first compound 4 µM) | relative viability (Selisistat + Trametinib; first compound 12.65 µM) | relative viability (Selisistat + Trametinib; first compound 40 µM) | relative viability (Serdemetan + Olaparib; first compound 0.04 µM) | relative viability (Serdemetan + Olaparib; first compound 0.1265 µM) | relative viability (Serdemetan + Olaparib; first compound 0.4 µM) | relative viability (Serdemetan + Olaparib; first compound 1.265 µM) | relative viability (Serdemetan + Olaparib; first compound 4 µM) |
| --- | --- | --- | --- | --- | --- | --- | --- | --- | --- | --- | --- | --- | --- | --- | --- | --- | --- | --- | --- | --- |
| 201T | 1.14 | 1.12 | 0.983 | 1.04 | 1.01 | 0.707 | 0.712 | 0.67 | 0.655 | 0.664 | 0.761 | 0.655 | 0.71 | 0.691 | 0.749 | 0.821 | 0.8 | 0.822 | 0.543 | 0.492 |
| A549 |  |  |  |  |  | 0.537 | 0.558 | 0.517 | 0.264 | 0.262 |  |  |  |  |  | 0.208 | 0.382 | 0.269 | 0.141 | 0.147 |
| A-427 | 0.882 | 0.729 | 0.881 | 0.977 | 0.949 | 0.787 | 0.704 | 0.607 | 0.49 | 0.599 | 0.842 | 0.801 |  | 0.776 | 0.775 | 0.693 | 0.639 | 0.711 | 0.66 | 0.643 |
| ABC-1 | 0.477 | 0.483 |  |  | 0.627 | 0.674 | 0.673 | 0.616 | 0.367 | 0.294 |  |  |  |  |  | 0.627 | 0.689 | 0.982 | 0.702 | 0.573 |
| BEN | 0.429 | 0.242 | 0.33 | 0.207 | 0.383 | 0.57 | 0.529 | 0.565 | 0.535 | 0.496 | 1.05 | 0.882 | 0.896 | 1.03 | 0.957 | 0.975 | 0.98 | 1.15 | 0.81 | 0.594 |
| CAL-12T | 0.546 | 0.326 | 0.275 | 0.784 | 0.401 |  | 0.521 |  | 0.369 | 0.368 | 0.375 | 0.365 | 0.35 | 0.311 | 0.341 | 0.777 | 0.713 | 0.576 | 0.742 | 0.67 |
| COR-L23 | 0.709 | 0.715 | 0.641 | 0.655 | 0.61 | 0.665 | 0.767 | 0.785 | 0.598 | 0.752 | 0.66 | 0.597 | 0.656 | 0.614 | 0.645 | 0.316 | 0.324 | 0.386 | 0.313 | 0.289 |
| COR-L 105 | 0.464 | 0.608 |  | 0.909 | 0.775 | 0.366 | 0.486 | 0.322 | 0.427 | 0.37 | 0.45 | 0.421 | 0.421 | 0.442 | 0.512 | 0.774 | 0.677 | 0.542 | 0.603 | 0.565 |
| Calu-6 |  |  |  |  |  | 0.912 | 0.888 | 0.888 | 0.647 | 0.621 |  |  |  |  |  | 0.561 | 0.612 | 0.555 | 0.412 | 0.362 |
| ChaGo-K-1 | 0.586 | 0.581 | 0.648 | 0.526 | 0.61 |  | 0.832 | 0.649 | 0.421 | 0.659 | 0.895 | 0.886 | 0.881 | 0.895 | 0.888 | 0.401 | 0.269 | 0.258 | 0.168 | 0.257 |
| EBC-1 |  |  |  |  |  | 0.35 | 0.449 | 0.451 | 0.411 | 0.368 |  |  |  |  |  | 0.694 | 0.669 | 0.703 | 0.594 | 0.547 |
| EKVX | 0.844 | 0.894 | 0.814 | 0.934 | 0.877 | 0.532 | 0.414 | 0.352 | 0.441 | 0.425 | 0.383 | 0.392 | 0.324 | 0.379 | 0.48 | 0.852 | 0.851 |  |  | 0.66 |
| EMC-BAC-2 | 1.12 | 1.07 | 1.14 | 1.17 | 1.08 | 0.564 | 0.556 | 0.507 | 0.508 | 0.502 | 0.907 | 0.927 | 0.96 | 0.885 | 0.816 | 0.447 | 0.446 | 0.473 | 0.338 | 0.403 |
| EPLC-272H | 0.213 | 0.409 |  | 0.32 | 0.197 | 0.365 | 0.348 | 0.293 | 0.27 | 0.33 | 0.294 | 0.287 |  | 0.284 | 0.33 | 0.837 | 0.883 | 0.714 | 0.676 | 0.641 |
| H3255 | 0.807 | 0.79 | 0.948 | 0.773 | 0.819 | 0.5 | 0.403 | 0.423 | 0.497 | 0.435 | 0.664 | 0.526 | 0.584 | 0.636 | 0.637 | 0.559 | 0.529 | 0.527 | 0.508 | 0.566 |
| HARA | 0.909 | 1.02 | 0.846 | 0.584 | 1.04 | 0.385 | 0.411 | 0.408 |  | 0.347 | 0.659 | 0.962 |  | 0.509 | 0.377 | 0.875 | 0.892 | 0.674 | 0.476 | 0.362 |
| HCC-15 | 0.329 | 0.205 |  | 0.373 | 0.319 | 0.753 | 0.821 | 0.708 | 0.567 | 0.638 | 0.453 | 0.433 |  | 0.37 | 0.468 | 0.673 | 0.667 | 0.57 | 0.38 | 0.386 |
| HCC-44 | 1.05 |  |  | 1.12 | 1.16 | 0.513 | 0.668 | 0.501 | 0.481 | 0.689 | 1.1 | 1.22 | 1.13 | 1.07 | 1.05 | 0.94 | 0.943 | 0.979 | 0.851 | 0.815 |
| HCC-78 |  |  |  |  |  | 0.207 | 0.201 | 0.155 | 0.192 | 0.245 | 0.783 | 0.779 | 0.696 | 0.744 | 0.732 | 0.847 | 0.731 | 0.749 | 0.79 | 0.592 |
